For 28 compounds, IC50 results are on record in US10189854B2, “Substituted pyrimidine compounds” (Grünenthal GmbH, priority 2014, dated 2019).

The IC50 is the concentration that gives 50% inhibition. The low end stands for inhibition by little substance, the high end for a need for much substance.

Where only a bound is given, the exact number is not on record here.

Sequence of human PDE4B1 (Q07343 whole entry): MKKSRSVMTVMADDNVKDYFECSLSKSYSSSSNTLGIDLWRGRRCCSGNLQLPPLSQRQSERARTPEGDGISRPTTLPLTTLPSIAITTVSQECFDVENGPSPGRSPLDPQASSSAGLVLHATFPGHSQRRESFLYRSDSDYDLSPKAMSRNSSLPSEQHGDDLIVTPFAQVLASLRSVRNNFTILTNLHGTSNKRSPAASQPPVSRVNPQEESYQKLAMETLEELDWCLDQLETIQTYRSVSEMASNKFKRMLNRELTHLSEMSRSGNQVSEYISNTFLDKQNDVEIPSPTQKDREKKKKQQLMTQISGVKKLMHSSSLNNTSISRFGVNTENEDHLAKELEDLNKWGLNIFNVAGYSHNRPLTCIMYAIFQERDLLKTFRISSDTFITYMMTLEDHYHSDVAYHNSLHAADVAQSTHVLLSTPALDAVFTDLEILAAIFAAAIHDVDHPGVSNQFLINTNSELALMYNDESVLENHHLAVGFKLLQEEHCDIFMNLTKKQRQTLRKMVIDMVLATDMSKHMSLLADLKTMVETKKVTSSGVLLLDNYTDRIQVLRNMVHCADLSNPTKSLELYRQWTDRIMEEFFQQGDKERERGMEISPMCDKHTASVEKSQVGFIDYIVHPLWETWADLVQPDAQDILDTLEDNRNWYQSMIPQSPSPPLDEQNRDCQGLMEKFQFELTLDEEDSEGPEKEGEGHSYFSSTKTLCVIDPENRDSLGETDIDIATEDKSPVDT

The assay concerns the target human PDE4B1 (Homo sapiens (Human), UniProt Q07343). The assay is described as follows: TR-FRET assay using the LANCE Ultra cAMP kit to determine the activity of hPDE4B1. The class given is biochemical. The note with it: IC50 inhibition of PDE4B, mean. The method, boiled down:
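Recombinant human PDE4B1 (Sf9-expressed, 0.96 U) incubated with compound and 500 nM cAMP in 50 mM Tris-HCl, 50 mM MgCl2, 5 mM DTT, pH 8.5, 30 min at room temperature. Residual cAMP read by TR-FRET (665/620 nm ratio) after IBMX stop. IC50 from ten-concentration curves as % inhibition of control.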
(In general: TR-FRET usually uses a lanthanide donor and a delayed reading to cut background.)
Consider `Nc1ccnc(-c2cnc(N3CC4(CC4)c4ccc(C(=O)N5C[C@@H]6C[C@H]5CN6)cc43)nc2)c1` [Compound 301, [1-[5-(4-Amino-pyridin-2-yl)-pyrimidin-2-yl]-spiro[1,2-dihydro-indole-3,1′-cyclopropane]-6-yl]-[(1S,4S)-2,5-diazabicyclo[2.2.1]heptan-2-yl]-methanone], for which the 50% inhibitory concentration (IC50) is < 0.1 µM.

Regarding `O=C(c1ccc2c(c1)N(c1ncc(-c3ccccc3F)cn1)CC21CC1)N1C[C@@H]2C[C@H]1CN2` [Compound 221, [(1S,4S)-2,5-Diazabicyclo[2.2.1]heptan-2-yl]-[1-[5-(2-fluorophenyl)-pyrimidin-2-yl]-spiro[1,2-dihydro-indole-3,1′-cyclopropane]-6-yl]-methanone], the IC50 is < 0.1 µM.

As for `COc1ccnc(-c2cnc(N3CC4(CC4)c4ccc(C(=O)N(C)CC(N)=O)cc43)nc2)c1` [Compound 321, N-(Carbamoyl-methyl)-1-[5-(4-methoxy-pyridin-2-yl)-pyrimidin-2-yl]-N-methyl-spiro[1,2-dihydro-indole-3,1′-cyclopropane]-6-carboxylic acid amide], the concentration for half-maximal inhibition (IC50) is < 0.1 µM.

On to `CCOc1ccnc(-c2cnc(N3CC4(CC4)c4ccc(C(=O)N(C)CCO)cc43)nc2)c1` [Compound 257, 1-[5-(4-Ethoxy-pyridin-2-yl)-pyrimidin-2-yl]-N-(2-hydroxy-ethyl)-N-methyl-spiro[1,2-dihydro-indole-3,1′-cyclopropane]-6-carboxylic acid amide], for which the half-maximal inhibitory concentration (IC50) is < 0.1 µM.

Regarding `N[C@@H]1CCN(C(=O)c2ccc3c(c2)N(c2ncc(-c4ccccn4)cn2)CC32CC2)C1` [Compound 329, [(3R)-3-Amino-pyrrolidin-1-yl]-[1-(5-pyridin-2-yl-pyrimidin-2-yl)-spiro[1,2-dihydro-indole-3,1′-cyclopropane]-6-yl]-methanone], the IC50 is < 0.1 µM.

For the compound `Cc1cccc(-c2cnc(N3CC4(CC4)c4ccc(C(=O)N5CCNC(=O)C5)cc43)nc2)n1` [Compound 286, 4-[1-[5-(6-Methyl-pyridin-2-yl)-pyrimidin-2-yl]-spiro[1,2-dihydro-indole-3,1′-cyclopropane]-6-carbonyl]-piperazin-2-one], the IC50 is < 0.1 µM.

`O=C(c1ccc2c(c1)N(c1ncc(-c3cccc(F)c3)cn1)CC21CC1)N1CC2CC1CN2` (stereo not shown) [Compound 223, (2,5-Diazabicyclo[2.2.1]heptan-2-l)-[1-[5-(3-fluorophenyl)-pyrimidin-2-yl]-spiro[1,2-dihydro-indole-3,1′-cyclopropane]-6-yl]-methanone]: the half-inhibitory concentration (IC50) was < 0.1 µM.

`CN(CCO)C(=O)c1ccc2c(c1)N(c1ncc(-c3ccc4c(c3)OCO4)cn1)CC21CC1` [Compound 219, 1-[5-(1,3-Benzodioxol-5-yl)-pyrimidin-2-yl]-N-(2-hydroxy-ethyl)-N-methyl-spiro[1,2-dihydro-indole-3,1′-cyclopropane]-6-carboxylic acid amide]: the IC50 was < 0.1 µM.

For the compound `CN(CC(=O)O)C(=O)c1ccc2c(c1)N(c1ncc(-c3ccccc3F)cn1)CC21CC1` [Compound 245, 2-[[1-[5-(2-Fluorophenyl)-pyrimidin-2-yl]-spiro[1,2-dihydro-indole-3,1′-cyclopropane]-6-carbonyl]-methyl-amino]-acetic acid], the IC50 was < 0.1 µM.

For the compound `O=C(c1ccc2c(c1)N(c1ncc(-c3ccccn3)cn1)CC21CC1)N1C[C@@H]2C[C@H]1CN2` [Compound 304, [(1S,4S)-2,5-Diazabicyclo[2.2.1]heptan-2-yl]-[1-(5-pyridin-2-yl-pyrimidin-2-yl)-spiro[1,2-dihydro-indole-3,1′-cyclopropane]-6-yl]-methanone], the IC50 is < 0.1 µM.

As to `CN(CCO)C(=O)c1ccc2c(c1)N(c1ncc(-c3cc([S+](C)[O-])ccc3F)cn1)CC21CC1` (stereo not shown) [Compound 287, 1-[5-[2-Fluoro-5-(methylsulfinyl)-phenyl]-pyrimidin-2-yl]-N-(2-hydroxy-ethyl)-N-methyl-spiro[1,2-dihydro-indole-3,1′-cyclopropane]-6-carboxylic acid amide], the 50% inhibitory concentration (IC50) is < 0.1 µM.

Compound `COc1cc(C2CC2)cc(-c2cnc(N3CC4(CC4)c4ccc(C(=O)N(C)CCO)cc43)nc2)n1` [Compound 361, 1′-(5-(4-cyclopropyl-6-methoxypyridin-2-yl)pyrimidin-2-yl)-N-(2-hydroxyethyl)-N-methylspiro[cyclopropane-1,3′-indoline]-6′-carboxamide] displayed an IC50 of 0.1 to 1 µM.

In turn, `C[C@H](O)CN1CCN(C(=O)c2ccc3c(c2)N(c2ncc(-c4ccccc4F)cn2)CC32CC2)CC1` [Compound 240, [1-[5-(2-Fluorophenyl)-pyrimidin-2-yl]-spiro[1,2-dihydro-indole-3,1′-cyclopropane]-6-yl]-[4-[(2S)-2-hydroxy-propyl]-piperazin-1-yl]-methanone] showed an IC50 of 0.1 to 1 µM.

Take `CN(C)c1ccnc(-c2cnc(N3CC4(CC4)c4ccc(C(=O)N5CCNC(=O)C5)cc43)nc2)c1` [Compound 255]: the IC50 is < 0.1 µM.

For the compound `Nc1ccnc(-c2cnc(N3CC4(CC4)c4ccc(C(=O)N5C[C@H]6C[C@@H]5CN6)cc43)nc2)c1` [Compound 356, [1-[5-(4-Amino-pyridin-2-yl)-pyrimidin-2-yl]-spiro[1,2-dihydro-indole-3,1′-cylcopropane]-6-yl]-[(1R,4R)-2,5-diazabicyclo[2.2.1]heptan-2-yl]-methanone], the IC50 is < 0.1 µM.

As to `CN(CCO)C(=O)c1ccc2c(c1)N(c1ncc(-c3cc(S(C)(=O)=O)ccn3)cn1)CC21CC1` [Compound 289, N-(2-Hydroxy-ethyl)-N-methyl-1-[5-(4-methylsulfonyl-pyridin-2-yl)-pyrimidin-2-yl]-spiro[1,2-dihydro-indole-3,1′-cyclopropane]-6-carboxylic acid amide], the IC50 is < 0.1 µM.

For `Cc1cccc(-c2cnc(N3CC4(CC4)c4ccc(C(=O)N(C)CCO)cc43)nc2)n1` [Compound 234, N-(4-Hydroxy-ethyl)-N-methyl-1-[5-(6-methyl-pyridin-2-yl)-pyrimidin-2-yl]-spiro[1,2-dihydro-indole-3,1′-cyclopropane]-6-carboxylic acid amide], the half-maximal inhibitory concentration (IC50) is < 0.1 µM.

`C[C@H](O)CN(C)C(=O)c1ccc2c(c1)N(c1ncc(-c3ccccc3F)cn1)CC21CC1` [Compound 284, 1-[5-(2-Fluorophenyl)-pyrimidin-2-yl]-N-[(2S)-2-hydroxy-propyl]-N-methyl-spiro[1,2-dihydro-indole-3,1′-cyclopropane]-6-carboxylic acid amide]: the IC50 was < 0.1 µM.

In the case of `O=C(c1ccc2c(c1)N(c1ncc(-c3ccccc3F)cn1)CC21CC1)N1CC[C@@H](CO)C1` [Compound 311, [1-[5-(2-Fluorophenyl)-pyrimidin-2-yl]-spiro[1,2-dihydro-indole-3,1′-cyclopropane]-6-yl]-[(3R)-3-(hydroxymethyl)-pyrrolidin-1-yl]-methanone], the IC50 is < 0.1 µM.

`COCCN1CCN(C(=O)c2ccc3c(c2)N(c2ncc(-c4ccccc4F)cn2)CC32CC2)CC1` [Compound 235, [1-[5-(2-Fluorophenyl)-pyrimidin-2-yl]-spiro[1,2-dihydro-indole-3,1′-cylcopropane]-6-yl]-[4-(2-methoxy-ethyl)-piperazin-1-yl]-methanone] showed an IC50 of 0.1 to 1 µM.

Consider `O=C(c1ccc2c(c1)N(c1ncc(-c3ccccc3F)cn1)CC21CC1)N1CCC[C@@H](CO)C1` [Compound 313, [1-[5-(2-Fluorophenyl)-pyrimidin-2-yl]-spiro[1,2-dihydro-indole-3,1′-cyclopropane]-6-yl]-[(3R)-3-(hydroxymethyl)-piperidin-1-l]-methanone], for which the IC50 is < 0.1 µM.

For the compound `CC(O)c1ccnc(-c2cnc(N3CC4(CC4)c4ccc(C(=O)N(C)CCO)cc43)nc2)c1` (stereo not shown) [Compound 318, N-(2-Hydroxy-ethyl)-1-[5-[4-(1-hydroxy-ethyl)-pyridin-2-yl]-pyrimidin-2-yl]-N-methyl-spiro[1,2-dihydro-indole-3,1′-cyclopropane]-6-carboxylic acid amide], the concentration for half-maximal inhibition (IC50) is < 0.1 µM.

As to `CC(=O)Nc1ccnc(-c2cnc(N3CC4(CC4)c4ccc(C(=O)N5C[C@@H]6C[C@H]5CN6)cc43)nc2)c1` [Compound 338, N-[2-[2-[6-[(1S,4S)-2,5-Diazabicyclo[2.2.1]heptane-2-carbonyl]-spiro[1,2-dihydro-indole-3,1′-cyclopropane]-1-yl]-pyrimidin-5-yl]-pyridin-4-yl]-acetamide], the IC50 was < 0.1 µM.

As to `CS(=O)(=O)c1ccnc(-c2cnc(N3CC4(CC4)c4ccc(C(=O)N5CCOCC5)cc43)nc2)c1` [Compound 345, [1-[5-(4-Methylsulfonyl-pyridin-2-yl)-pyrimidin-2-yl]-spiro[1,2-dihydro-indole-3,1′-cyclopropane]-6-yl]-morpholin-4-yl-methanone], the IC50 was < 0.1 µM.

As for `CC(C)c1ccnc(-c2cnc(N3CC4(CC4)c4ccc(C(=O)N(C)CCO)cc43)nc2)c1` [Compound 242, N-(2-Hydroxy-ethyl)-1-[5-(4-isopropyl-pyridin-2-yl)-pyrimidin-2-yl]-N-methyl-spiro[1,2-dihydro-indole-3,1′-cyclopropane]-6-carboxylic acid amide], the half-inhibitory concentration (IC50) was < 0.1 µM.

Turning to `CC(=O)Oc1cccc(-c2cnc(N3CC4(CC4)c4ccc(C(=O)N(C)CCO)cc43)nc2)c1` [Compound 358, Acetic acid [3-[2-[6-[(2-hydroxy-ethyl)-methyl-carbamoyl]-spiro[1,2-dihydro-indole-3,1′-cyclopropane]-1-yl]-pyrimidin-5-yl]-phenyl]ester], the 50% inhibitory concentration (IC50) was < 0.1 µM.

Take `Cc1nc(-c2cnc(N3CC4(CC4)c4ccc(C(=O)N(C)CCO)cc43)nc2)cs1` [Compound 324, N-(2-Hydroxy-ethyl)-N-methyl-1-[5-(2-methyl-thiazol-4-yl)-pyrimidin-2-yl]-spiro[1,2-dihydro-indole-3,1′-cyclopropane]-6-carboxylic acid amide]: the IC50 was < 0.1 µM.

Turning to `CN(C)C(=O)c1ccc2c(c1)N(c1ncc(-c3ccccn3)cn1)CC21CC1` [Compound 306, N,N-Dimethyl-1-(5-pyridin-2-yl-pyrimidin-2-yl)-spiro[1,2-dihydro-indole-3,1′-cyclopropane]-6-carboxylic acid amide], the concentration for half-maximal inhibition (IC50) was < 0.1 µM.
